Experimental data reported in the supplement of paper PMC10307832.

Key:
Salubrinal = compound: O=C(/C=C/c1ccccc1)NC(NC(=S)Nc1cccc2cccnc12)C(Cl)(Cl)Cl [Salubrinal]; assay: relative viability (nuclei count vs DMSO), 5 days (fraction); higher = more cells survive
Procedure, shortened: (§1)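 Acceptance criteria were a control CV below 25% and at least one doubling per plate. Lung cancer cell lines in 1536-well plates got five library-drug doses (not always all listed) √10 apart by pinning and were left 5 days with no medium change. Viability divides treated-well nuclei by vehicle-well nuclei and is the median across plates. Nuclei were counted by MetaXpress from 4× Hoechst images.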

[1] = compound: Cc1ccc2nc(NCCN)c3ncc(C)n3c2c1; assay: as above
Procedure, shortened: as §1

Cell Line | relative viability (Salubrinal; 0.08 µM) | relative viability (Salubrinal; 0.253 µM) | relative viability (Salubrinal; 0.8 µM) | relative viability (Salubrinal; 2.53 µM) | relative viability (Salubrinal; 8 µM) | relative viability ([1]; 0.04 µM) | relative viability ([1]; 0.1265 µM) | relative viability ([1]; 0.4 µM) | relative viability ([1]; 1.265 µM) | relative viability ([1]; 4 µM)
201T | 1.03 | 0.869 | 1.12 | 1.02 | 0.983 | 1.03 | 0.993 | 0.978 | 1.04 | 0.948
A549 | 1.2 | 0.855 | 1.03 | 0.99 | 0.924 | 1.09 | 0.927 | 1.01 | 0.958 | 0.879
A-427 | 1.06 | 0.973 | 1.12 | 0.965 | 1.08 | 1.01 | 1.01 | 0.968 | 1.05 | 0.95
ABC-1 | 0.978 | 0.909 | 0.902 | 1.01 | 0.849 | 0.987 | 1.01 | 0.97 | 1.04 | 0.822
BEN | 1.07 | 0.961 | 1.07 | 1.15 | 0.976 | 1.07 | 0.931 | 0.93 | 1.03 | 1.04
CAL-12T | 1.09 | 0.956 | 1.08 | 1.03 | 0.888 | 0.984 | 0.981 | 0.976 | 1.02 | 0.91
COR-L23 | 1.11 | 1.1 | 1.06 | 0.966 | 0.95 | 1.05 | 1.04 | 0.964 | 0.994 | 0.994
COR-L 105 | 0.93 | 0.895 | 0.94 | 0.88 | 0.83 | 0.997 | 0.864 | 0.955 | 1.05 | 0.801
Calu-6 | 1.17 | 0.925 | 1.01 | 0.981 | 0.936 | 1.03 | 0.986 | 0.974 | 1.02 | 0.854
ChaGo-K-1 | 1.05 | 0.912 | 1.15 | 1.01 | 0.922 | 0.958 | 1.01 | 1.05 | 1.01 | 0.874
EBC-1 | 1.02 | 0.923 | 1.12 | 0.887 | 0.902 | 1.08 | 0.976 | 0.934 | 0.946 | 0.79
EKVX | 1.04 | 0.837 | 1.01 | 1.06 | 1.04 | 1.07 | 0.889 | 0.992 | 0.948 | 0.826
EMC-BAC-2 | 0.934 | 1.06 | 1.25 | 0.996 | 0.973 | 1 | 1 | 0.966 | 1.08 | 0.946
EPLC-272H | 0.917 | 0.884 | 1.07 | 0.98 | 0.765 | 1.01 | 1.13 | 0.992 | 1 | 0.835
H3255 | 1.07 | 0.965 | 1.11 | 0.958 | 0.949 | 1.02 | 0.9 | 0.886 | 1.06 | 0.843
HARA | 1 | 0.956 | 1.02 | 0.908 | 1.17 | 0.913 | 0.956 | 0.928 | 0.843 | 0.973
HCC-15 | 1.13 | 0.93 | 1.14 | 1.08 | 0.963 | 1 | 1.09 | 0.907 | 0.916 | 0.86
